Columns and labels:
[1] = biological target: PRKD3 (human) (UniProt O94806); assay: KINOMEscan competition binding; settings: compound 10.0 µM
[2] = biological target: PIP5K1A (human) (UniProt Q99755); assay: KINOMEscan competition binding; settings: compound 10.0 µM
[3] = biological target: PLK3 (human) (UniProt Q9H4B4); assay: KINOMEscan competition binding; settings: compound 10.0 µM
[4] = biological target: KIT (human) (UniProt P10721); assay: KINOMEscan competition binding; settings: compound 10.0 µM
[5] = biological target: RPS6KA1 KD2 (human) (UniProt Q15418); assay: KINOMEscan competition binding; settings: compound 10.0 µM
[6] = tested on: ABL1 (human), P00519 [F317I]; assay: KINOMEscan competition binding; settings: compound 10.0 µM
[7] = biological target: PDGFRA (human) (UniProt P16234); assay: KINOMEscan competition binding; settings: compound 10.0 µM
[8] = biological target: TNK2 (human) (UniProt Q07912); assay: KINOMEscan competition binding; settings: compound 10.0 µM
[9] = tested on: KIT (human), P10721 [V559D]; assay: KINOMEscan competition binding; settings: compound 10.0 µM
[10] = biological target: RPS6KA6 KD2 (human) (UniProt Q9UK32); assay: KINOMEscan competition binding; settings: compound 10.0 µM
[11] = biological target: RIOK1 (human) (UniProt Q9BRS2); assay: KINOMEscan competition binding; settings: compound 10.0 µM
[12] = tested on: EIF2AK4 KD2 (human), Q9P2K8 [S808G]; assay: KINOMEscan competition binding; settings: compound 10.0 µM
[13] = tested on: FLT3 (human), P36888 [D835H]; assay: KINOMEscan competition binding; settings: compound 10.0 µM
[14] = tested on: KIT (human), P10721 [D816V]; assay: KINOMEscan competition binding; settings: compound 10.0 µM
[15] = biological target: GAK (human) (UniProt O14976); assay: KINOMEscan competition binding; settings: compound 10.0 µM
[16] = biological target: TNK1 (human) (UniProt Q13470); assay: KINOMEscan competition binding; settings: compound 10.0 µM
[17] = biological target: TYK2 JH2 pseudokinase (human) (UniProt P29597); assay: KINOMEscan competition binding; settings: compound 10.0 µM
[18] = biological target: CSF1R (human) (UniProt P07333); assay: KINOMEscan competition binding; settings: compound 10.0 µM
[19] = biological target: BLK (human) (UniProt P51451); assay: KINOMEscan competition binding; settings: compound 10.0 µM
[20] = biological target: STK33 (human) (UniProt Q9BYT3); assay: KINOMEscan competition binding; settings: compound 10.0 µM
[21] = biological target: CHEK1 (human) (UniProt O14757); assay: KINOMEscan competition binding; settings: compound 10.0 µM
[22] = tested on: ABL1 (human), P00519 [F317L]; assay: KINOMEscan competition binding; settings: compound 10.0 µM
[23] = biological target: FLT4 (human) (UniProt P35916); assay: KINOMEscan competition binding; settings: compound 10.0 µM
[24] = biological target: SLK (human) (UniProt Q9H2G2); assay: KINOMEscan competition binding; settings: compound 10.0 µM
[25] = biological target: NEK2 (human) (UniProt P51955); assay: KINOMEscan competition binding; settings: compound 10.0 µM
[26] = tested on: FLT3 (human), P36888 [K663Q]; assay: KINOMEscan competition binding; settings: compound 10.0 µM
[27] = biological target: MYLK4 (human) (UniProt Q86YV6); assay: KINOMEscan competition binding; settings: compound 10.0 µM
[28] = biological target: FGFR4 (human) (UniProt P22455); assay: KINOMEscan competition binding; settings: compound 10.0 µM
[29] = biological target: BMP2K (human) (UniProt Q9NSY1); assay: KINOMEscan competition binding; settings: compound 10.0 µM
[30] = biological target: SIK2 (human) (UniProt Q9H0K1); assay: KINOMEscan competition binding; settings: compound 10.0 µM
[31] = biological target: FRK (human) (UniProt P42685); assay: KINOMEscan competition binding; settings: compound 10.0 µM
[32] = tested on: KIT (human), P10721 [V559D/V654A]; assay: KINOMEscan competition binding; settings: compound 10.0 µM
[33] = biological target: PRKD1 (human) (UniProt Q15139); assay: KINOMEscan competition binding; settings: compound 10.0 µM
[34] = biological target: RIOK3 (human) (UniProt O14730); assay: KINOMEscan competition binding; settings: compound 10.0 µM
[35] = tested on: KIT (human), P10721 [V559D/T670I]; assay: KINOMEscan competition binding; settings: compound 10.0 µM
[36] = biological target: FLT3 (human) (UniProt P36888); assay: KINOMEscan competition binding; settings: compound 10.0 µM
[37] = biological target: PDGFRB (human) (UniProt P09619); assay: KINOMEscan competition binding; settings: compound 10.0 µM
[38] = biological target: PIM3 (human) (UniProt Q86V86); assay: KINOMEscan competition binding; settings: compound 10.0 µM
[39] = biological target: CSNK2A2 (human) (UniProt P19784); assay: KINOMEscan competition binding; settings: compound 10.0 µM
[40] = biological target: STK3 (human) (UniProt Q13188); assay: KINOMEscan competition binding; settings: compound 10.0 µM
[41] = biological target: SRPK3 (human) (UniProt Q9UPE1); assay: KINOMEscan competition binding; settings: compound 10.0 µM
[42] = biological target: CDK16 (human) (UniProt Q00536); assay: KINOMEscan competition binding; settings: compound 10.0 µM
[43] = biological target: HIPK1 (human) (UniProt Q86Z02); assay: KINOMEscan competition binding; settings: compound 10.0 µM
[44] = biological target: MAPK9 (human) (UniProt P45984); assay: KINOMEscan competition binding; settings: compound 10.0 µM
[45] = biological target: DAPK2 (human) (UniProt Q9UIK4); assay: KINOMEscan competition binding; settings: compound 10.0 µM
[46] = biological target: ALK (human) (UniProt Q9UM73); assay: KINOMEscan competition binding; settings: compound 10.0 µM
[47] = biological target: STK17B (human) (UniProt O94768); assay: KINOMEscan competition binding; settings: compound 10.0 µM
[48] = biological target: MERTK (human) (UniProt Q12866); assay: KINOMEscan competition binding; settings: compound 10.0 µM
[49] = biological target: CSNK2A1 (human) (UniProt P68400); assay: KINOMEscan competition binding; settings: compound 10.0 µM
[50] = biological target: NEK6 (human) (UniProt Q9HC98); assay: KINOMEscan competition binding; settings: compound 10.0 µM
[51] = biological target: MAPK8 (human) (UniProt P45983); assay: KINOMEscan competition binding; settings: compound 10.0 µM
[52] = biological target: SRPK1 (human) (UniProt Q96SB4); assay: KINOMEscan competition binding; settings: compound 10.0 µM
[53] = biological target: PIM1 (human) (UniProt P11309); assay: KINOMEscan competition binding; settings: compound 10.0 µM
[54] = biological target: AXL (human) (UniProt P30530); assay: KINOMEscan competition binding; settings: compound 10.0 µM
[55] = biological target: PIM2 (human) (UniProt Q9P1W9); assay: KINOMEscan competition binding; settings: compound 10.0 µM
[56] = biological target: MAPK14 (human) (UniProt Q16539); assay: KINOMEscan competition binding; settings: compound 10.0 µM
[57] = biological target: PLK4 (human) (UniProt O00444); assay: KINOMEscan competition binding; settings: compound 10.0 µM
[58] = biological target: NEK7 (human) (UniProt Q8TDX7); assay: KINOMEscan competition binding; settings: compound 10.0 µM
[59] = biological target: DAPK3 (human) (UniProt O43293); assay: KINOMEscan competition binding; settings: compound 10.0 µM
[60] = biological target: MAPK10 (human) (UniProt P53779); assay: KINOMEscan competition binding; settings: compound 10.0 µM
[61] = biological target: AURKC (human) (UniProt Q9UQB9); assay: KINOMEscan competition binding; settings: compound 10.0 µM
[62] = biological target: TGFBR2 (human) (UniProt P37173); assay: KINOMEscan competition binding; settings: compound 10.0 µM
[63] = biological target: STK17A (human) (UniProt Q9UEE5); assay: KINOMEscan competition binding; settings: compound 10.0 µM
[64] = biological target: PIM1 (human) (UniProt P11309); assay: SelectScreen, TR FRET
[65] = biological target: PIM2 (human) (UniProt Q9P1W9); assay: SelectScreen, TR FRET

GAK (human), sequence (O14976 whole entry, looked up): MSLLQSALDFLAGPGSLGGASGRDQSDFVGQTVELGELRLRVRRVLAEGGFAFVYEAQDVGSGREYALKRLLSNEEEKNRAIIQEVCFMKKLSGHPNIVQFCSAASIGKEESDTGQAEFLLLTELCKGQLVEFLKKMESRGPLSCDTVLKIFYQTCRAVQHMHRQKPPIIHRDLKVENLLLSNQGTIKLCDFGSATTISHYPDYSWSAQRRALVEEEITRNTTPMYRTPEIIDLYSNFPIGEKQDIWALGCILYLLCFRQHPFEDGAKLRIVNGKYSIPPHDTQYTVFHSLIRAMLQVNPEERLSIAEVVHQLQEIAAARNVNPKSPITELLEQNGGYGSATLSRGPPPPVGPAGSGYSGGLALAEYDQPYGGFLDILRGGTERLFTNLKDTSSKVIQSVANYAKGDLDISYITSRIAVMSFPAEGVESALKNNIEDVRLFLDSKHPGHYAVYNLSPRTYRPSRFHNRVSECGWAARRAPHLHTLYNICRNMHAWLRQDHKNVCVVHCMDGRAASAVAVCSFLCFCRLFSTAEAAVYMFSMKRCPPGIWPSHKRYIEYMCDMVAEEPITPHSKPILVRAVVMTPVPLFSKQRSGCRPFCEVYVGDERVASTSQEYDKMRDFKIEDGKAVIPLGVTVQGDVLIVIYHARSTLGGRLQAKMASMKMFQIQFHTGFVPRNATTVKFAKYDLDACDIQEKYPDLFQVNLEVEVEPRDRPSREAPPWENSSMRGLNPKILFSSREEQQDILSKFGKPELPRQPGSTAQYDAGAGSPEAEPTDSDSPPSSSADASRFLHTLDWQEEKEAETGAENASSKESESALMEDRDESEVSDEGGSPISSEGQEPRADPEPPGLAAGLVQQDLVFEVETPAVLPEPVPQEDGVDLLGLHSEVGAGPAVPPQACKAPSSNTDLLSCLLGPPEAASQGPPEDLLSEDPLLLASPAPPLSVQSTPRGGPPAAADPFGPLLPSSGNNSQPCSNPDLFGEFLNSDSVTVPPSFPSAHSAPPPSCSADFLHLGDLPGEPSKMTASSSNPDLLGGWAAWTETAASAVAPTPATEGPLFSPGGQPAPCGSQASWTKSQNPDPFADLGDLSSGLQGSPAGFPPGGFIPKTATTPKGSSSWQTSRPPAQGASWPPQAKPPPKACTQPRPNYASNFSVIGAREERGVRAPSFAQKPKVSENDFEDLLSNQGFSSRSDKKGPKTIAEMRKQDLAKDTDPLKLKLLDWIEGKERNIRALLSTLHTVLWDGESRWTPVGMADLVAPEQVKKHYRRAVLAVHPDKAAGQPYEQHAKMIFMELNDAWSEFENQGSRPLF
PIM1 (human), sequence (P11309 whole entry, looked up): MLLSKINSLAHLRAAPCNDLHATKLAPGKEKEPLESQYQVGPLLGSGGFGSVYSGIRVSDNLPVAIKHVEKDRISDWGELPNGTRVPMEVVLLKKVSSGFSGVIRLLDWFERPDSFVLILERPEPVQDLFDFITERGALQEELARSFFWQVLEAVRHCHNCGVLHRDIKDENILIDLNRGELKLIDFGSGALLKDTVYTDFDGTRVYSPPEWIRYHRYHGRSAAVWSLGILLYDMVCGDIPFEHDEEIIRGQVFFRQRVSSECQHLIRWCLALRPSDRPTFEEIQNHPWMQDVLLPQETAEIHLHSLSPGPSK
PIM2 (human), sequence (Q9P1W9 whole entry, looked up): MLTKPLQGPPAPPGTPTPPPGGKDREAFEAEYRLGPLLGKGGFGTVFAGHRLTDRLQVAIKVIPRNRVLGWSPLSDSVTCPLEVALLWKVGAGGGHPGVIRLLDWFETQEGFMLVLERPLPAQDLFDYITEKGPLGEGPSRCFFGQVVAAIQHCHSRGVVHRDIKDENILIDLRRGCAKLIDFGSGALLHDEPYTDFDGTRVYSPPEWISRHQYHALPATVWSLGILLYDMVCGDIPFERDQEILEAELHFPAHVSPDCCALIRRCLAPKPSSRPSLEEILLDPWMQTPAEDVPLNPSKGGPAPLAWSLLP
TYK2 JH2 pseudokinase (human), sequence (P29597 whole entry, looked up): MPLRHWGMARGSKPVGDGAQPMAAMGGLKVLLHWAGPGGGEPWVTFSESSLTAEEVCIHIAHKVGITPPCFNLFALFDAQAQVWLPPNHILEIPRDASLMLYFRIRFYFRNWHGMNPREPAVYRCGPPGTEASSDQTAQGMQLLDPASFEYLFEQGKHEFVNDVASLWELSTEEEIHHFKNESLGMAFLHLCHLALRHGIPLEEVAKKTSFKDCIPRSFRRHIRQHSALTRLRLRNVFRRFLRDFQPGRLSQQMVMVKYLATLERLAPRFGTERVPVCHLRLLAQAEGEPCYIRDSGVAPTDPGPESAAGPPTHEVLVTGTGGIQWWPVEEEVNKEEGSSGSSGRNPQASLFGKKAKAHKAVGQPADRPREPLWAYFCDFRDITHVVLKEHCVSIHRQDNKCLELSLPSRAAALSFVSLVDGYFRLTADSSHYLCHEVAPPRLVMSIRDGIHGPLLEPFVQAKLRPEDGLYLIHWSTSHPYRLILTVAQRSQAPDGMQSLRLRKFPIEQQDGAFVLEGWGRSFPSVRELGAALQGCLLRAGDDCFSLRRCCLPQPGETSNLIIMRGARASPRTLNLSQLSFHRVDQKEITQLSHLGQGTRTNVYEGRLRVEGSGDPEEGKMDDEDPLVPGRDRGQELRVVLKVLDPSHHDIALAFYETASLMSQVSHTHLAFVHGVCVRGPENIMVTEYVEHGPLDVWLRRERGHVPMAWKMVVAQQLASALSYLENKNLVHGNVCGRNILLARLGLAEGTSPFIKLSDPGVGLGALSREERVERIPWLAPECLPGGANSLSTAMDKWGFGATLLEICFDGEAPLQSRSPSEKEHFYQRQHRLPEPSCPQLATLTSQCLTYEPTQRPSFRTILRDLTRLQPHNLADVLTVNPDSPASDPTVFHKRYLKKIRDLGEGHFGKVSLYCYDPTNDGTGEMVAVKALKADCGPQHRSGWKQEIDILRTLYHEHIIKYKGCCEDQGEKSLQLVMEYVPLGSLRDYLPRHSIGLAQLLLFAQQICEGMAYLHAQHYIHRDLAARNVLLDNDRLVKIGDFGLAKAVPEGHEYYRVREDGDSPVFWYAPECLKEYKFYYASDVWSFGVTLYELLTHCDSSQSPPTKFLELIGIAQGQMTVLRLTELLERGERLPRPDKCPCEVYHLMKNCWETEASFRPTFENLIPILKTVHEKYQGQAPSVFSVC
RIOK3 (human), sequence (O14730 whole entry, looked up): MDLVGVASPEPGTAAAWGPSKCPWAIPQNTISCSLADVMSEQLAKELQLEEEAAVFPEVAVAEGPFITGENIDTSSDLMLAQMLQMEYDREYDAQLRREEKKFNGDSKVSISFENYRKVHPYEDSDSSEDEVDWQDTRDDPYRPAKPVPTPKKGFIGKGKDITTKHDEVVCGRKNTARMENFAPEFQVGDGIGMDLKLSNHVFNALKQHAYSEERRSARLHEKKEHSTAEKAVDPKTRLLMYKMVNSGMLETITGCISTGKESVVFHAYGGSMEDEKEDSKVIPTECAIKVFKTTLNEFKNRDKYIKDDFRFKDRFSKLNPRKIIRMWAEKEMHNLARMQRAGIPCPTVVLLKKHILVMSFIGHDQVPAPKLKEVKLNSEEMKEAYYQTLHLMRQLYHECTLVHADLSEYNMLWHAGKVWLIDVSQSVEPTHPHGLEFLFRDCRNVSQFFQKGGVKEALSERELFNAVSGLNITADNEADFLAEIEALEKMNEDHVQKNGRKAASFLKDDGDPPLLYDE
FLT4 (human), sequence (P35916 whole entry, looked up): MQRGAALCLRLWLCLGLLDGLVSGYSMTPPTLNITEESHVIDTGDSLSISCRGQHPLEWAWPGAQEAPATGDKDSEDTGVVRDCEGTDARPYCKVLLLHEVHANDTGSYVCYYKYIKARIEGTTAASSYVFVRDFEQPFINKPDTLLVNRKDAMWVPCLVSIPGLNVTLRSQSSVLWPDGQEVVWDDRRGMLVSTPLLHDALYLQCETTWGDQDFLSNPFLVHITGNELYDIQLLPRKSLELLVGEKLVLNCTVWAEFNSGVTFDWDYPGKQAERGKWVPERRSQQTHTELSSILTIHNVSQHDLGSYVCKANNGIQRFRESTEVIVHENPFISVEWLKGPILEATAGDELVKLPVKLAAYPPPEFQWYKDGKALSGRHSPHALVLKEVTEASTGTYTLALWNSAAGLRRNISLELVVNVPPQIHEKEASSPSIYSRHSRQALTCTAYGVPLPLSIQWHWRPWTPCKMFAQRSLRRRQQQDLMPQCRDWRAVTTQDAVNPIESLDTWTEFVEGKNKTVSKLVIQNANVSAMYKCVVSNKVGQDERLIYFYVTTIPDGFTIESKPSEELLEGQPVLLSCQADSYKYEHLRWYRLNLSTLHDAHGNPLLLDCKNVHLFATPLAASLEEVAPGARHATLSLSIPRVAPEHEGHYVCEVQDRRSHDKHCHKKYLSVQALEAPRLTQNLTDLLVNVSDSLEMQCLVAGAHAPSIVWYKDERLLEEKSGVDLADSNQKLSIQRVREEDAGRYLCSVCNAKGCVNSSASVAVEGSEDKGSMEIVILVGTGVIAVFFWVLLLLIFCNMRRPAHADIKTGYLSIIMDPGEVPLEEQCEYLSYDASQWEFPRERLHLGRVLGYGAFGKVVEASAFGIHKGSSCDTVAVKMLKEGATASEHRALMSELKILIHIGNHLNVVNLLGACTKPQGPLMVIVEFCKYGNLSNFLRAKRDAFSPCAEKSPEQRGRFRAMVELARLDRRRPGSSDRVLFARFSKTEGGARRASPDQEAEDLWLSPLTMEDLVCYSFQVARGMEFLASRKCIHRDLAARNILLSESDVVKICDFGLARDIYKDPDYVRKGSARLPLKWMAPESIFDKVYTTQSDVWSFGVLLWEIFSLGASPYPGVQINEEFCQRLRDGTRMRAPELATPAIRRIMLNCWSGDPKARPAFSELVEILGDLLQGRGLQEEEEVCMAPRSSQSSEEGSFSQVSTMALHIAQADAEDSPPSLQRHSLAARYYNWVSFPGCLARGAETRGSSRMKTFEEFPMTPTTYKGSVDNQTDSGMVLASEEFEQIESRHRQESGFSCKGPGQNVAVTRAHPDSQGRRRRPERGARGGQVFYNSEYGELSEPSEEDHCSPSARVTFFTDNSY

Question: With `COc1cc(N2CCN(C)CC2)ccc1Nc1ncc2c(n1)N1CCC[C@H]1CC(=O)N2` as the compound, how does the kinase still bound, per cent of control [1] read?
Answer: 30%

Question: What about the kinase still bound, per cent of control [2] of the same compound?
Answer: 11%

Question: What about the kinase still bound, per cent of control [3] of the same compound?
Answer: 9.5%

Question: And the kinase still bound, per cent of control [4]?
Answer: 0%

Question: And the kinase still bound, per cent of control [5]?
Answer: 14%

Question: What about the kinase still bound, per cent of control [6] of the same compound?
Answer: 13%

Question: What about the kinase still bound, per cent of control [7] of the same compound?
Answer: 1.8%

Question: And the kinase still bound, per cent of control [8]?
Answer: 8.6%

Question: What about the kinase still bound, per cent of control [9] of the same compound?
Answer: 0%

Question: And the kinase still bound, per cent of control [10]?
Answer: 2%

Question: And the kinase still bound, per cent of control [11]?
Answer: 21%

Question: And the kinase still bound, per cent of control [12]?
Answer: 21%

Question: What about the kinase still bound, per cent of control [13] of the same compound?
Answer: 27%

Question: And the kinase still bound, per cent of control [14]?
Answer: 12%

Question: What about the kinase still bound, per cent of control [15] of the same compound?
Answer: 0.85%

Question: And the kinase still bound, per cent of control [16]?
Answer: 25%

Question: What about the kinase still bound, per cent of control [17] of the same compound?
Answer: 27%

Question: And the kinase still bound, per cent of control [18]?
Answer: 0.8%

Question: And the kinase still bound, per cent of control [19]?
Answer: 23%

Question: What about the kinase still bound, per cent of control [20] of the same compound?
Answer: 12%

Question: What about the kinase still bound, per cent of control [21] of the same compound?
Answer: 6%

Question: What about the kinase still bound, per cent of control [22] of the same compound?
Answer: 19%

Question: And the kinase still bound, per cent of control [23]?
Answer: 33%

Question: What about the kinase still bound, per cent of control [24] of the same compound?
Answer: 31%

Question: And the kinase still bound, per cent of control [25]?
Answer: 24%

Question: What about the kinase still bound, per cent of control [26] of the same compound?
Answer: 19%

Question: And the kinase still bound, per cent of control [27]?
Answer: 7.8%

Question: And the kinase still bound, per cent of control [28]?
Answer: 17%

Question: And the kinase still bound, per cent of control [29]?
Answer: 29%

Question: What about the kinase still bound, per cent of control [30] of the same compound?
Answer: 18%

Question: What about the kinase still bound, per cent of control [31] of the same compound?
Answer: 8.2%

Question: What about the kinase still bound, per cent of control [32] of the same compound?
Answer: 8.4%

Question: And the kinase still bound, per cent of control [33]?
Answer: 29%

Question: What about the kinase still bound, per cent of control [34] of the same compound?
Answer: 31%

Question: What about the kinase still bound, per cent of control [35] of the same compound?
Answer: 33%

Question: And the kinase still bound, per cent of control [36]?
Answer: 11%

Question: And the kinase still bound, per cent of control [37]?
Answer: 0.05%

Question: What does the source list for `O=C1NC(=S)S/C1=C\c1ccc(-c2cccc3ccccc23)o1`?
Answer: kinase still bound, per cent of control [38]: 2.6%; kinase still bound, per cent of control [39]: 12%; kinase still bound, per cent of control [40]: 34%; kinase still bound, per cent of control [41]: 33%; kinase still bound, per cent of control [42]: 1.4%; kinase still bound, per cent of control [43]: 3.7%; kinase still bound, per cent of control [44]: 9.8%; kinase still bound, per cent of control [45]: 17%; kinase still bound, per cent of control [46]: 19%; kinase still bound, per cent of control [47]: 3.6%; kinase still bound, per cent of control [48]: 20%; kinase still bound, per cent of control [49]: 8%; kinase still bound, per cent of control [50]: 26%; kinase still bound, per cent of control [13]: 34%; kinase still bound, per cent of control [15]: 28%; kinase still bound, per cent of control [17]: 17%; kinase still bound, per cent of control [51]: 30%; kinase still bound, per cent of control [52]: 32%; kinase still bound, per cent of control [23]: 25%; kinase still bound, per cent of control [53]: 3%; kinase still bound, per cent of control [54]: 29%; kinase still bound, per cent of control [55]: 0.8%; kinase still bound, per cent of control [56]: 33%; kinase still bound, per cent of control [57]: 1.6%; kinase still bound, per cent of control [58]: 27%; kinase still bound, per cent of control [59]: 22%; kinase still bound, per cent of control [34]: 30%; kinase still bound, per cent of control [60]: 30%; kinase still bound, per cent of control [61]: 27%; kinase still bound, per cent of control [62]: 14%; kinase still bound, per cent of control [63]: 1.8%; IC50 [64]: 1.62 µM; IC50 [65]: 1.1 µM

Reference: the kinase profiling compilation of Christmann-Franck et al. (2016)
